# “And” between values parts separate entries of the source, which are not always exact repeats. Equal values may be shown once.
# What was measured:
# [1] = system: TGFβ-induced Smad phosphorylation; assay: TGFβ signaling in T and B cells (Smad phosphorylation, lymphocyte responses to TGFβ); format: cell-based, mouse; conditions: HF 2.5-40 nM or 10 nM; SB-431542 10 μM
# Experimental: T cells were then activated in the presence or absence of 3 ng/ml. TGFβ. Whole cell extracts were prepared after 1 hour of stimulation and western blot analyses were performed using the indicated antibodies.
# Western blotting: Whole cell lysates were generated from T cells activated for the indicated times. For STAT3 and Smad2/3 western blots cells were harvested, washed in PBS and lysed in 50 mM Tris, pH 7.4, 0.1% SDS, 1% Triton-X100, 140 mM NaCl, 1 mM EDTA, 1 mM EGTA supplemented with protease inhibitors tablets (Roche-Germany), 1 mM NaF and 1 mM Na3VO4. For eIF2α and ATF4 western blots, cells were harvested as above and lysed in 50 mM Tris, pH 7.4, 2% SDS, 20% glycerol and 2 mM EDTA supplemented with protease and phosphatase inhibitors as above. All lysates were cleared via centrifugation and 15-30 μg of protein was resolved by SDS-PAGE. Protein was transferred to nitrocellulose membranes, blocked and blotted using specific antibodies. Antibodies used for western blot analysis were anti-phospho-Smad2, anti-STAT3 (pY705), anti-STAT3, anti-eIF2α^pS51, anti-eIF2α, anti-GCN2^pT898, anti-GCN2 (all from cell signaling technology, Danvers, Mass.). Anti-ATF4/CREB2 and anti-β-actin were purchased from Santa Cruz biotechnology (Santa Cruz, Calif.). […]
# [2] = system: mice; conditions: IP, cited from earlier work
# [3] = system: Th17 differentiation of CD4+ CD25− T cells; assay: Th17 differentiation (IL-17+ IFNγ− cells) of T cells activated with TGFβ plus IL-6; format: cell-based, mouse
# Experimental: Low doses of halofuginone (HF) were tested to determine the ability of HF to enhance Treg differentiation, while suppressing Th17 differentiation. Nave. CD4+ T cells (CD4+ CD25−) were isolated from the spleen and peripheral lymph nodes of C57B/6 mice. T cells were then activated using anti-CD3 (0.3 μg/ml) and anti-CD28 (0.5 μg/ml) antibodies either in media alone (row 1, 4), TGFβ alone (3 ng/ml—row 2, 5) or TGFβ (3 ng/ml) plus IL-6 (30 ng/ml) (row 3, 6). […] T cells were cultured for 3 days and CD25 and Foxp3 expression (Treg marker genes) was determine by FACS staining and flow cytometric analyses. Simultaneously, T cells were harvested and re-stimulated for 4 hours using phorbol myristic acetate (PMA; 10 nM), Ionomycin (1 μM) and cytokine secretion was prevented using brefeldin A (20 μg/ml). Following stimulation, the production of IL-17 and IFNγ were determined by intracellular staining and analyzed via flow cytometry.
# The dose-response of HF on CD4+ T cell proliferation, activation (i.e. CD25 upregulation) and differentiation to Th1, Th2 and Th17 lineages were evaluated. Purified murine naïve CD4+ CD25− T cells were activated using anti-CD3 (0.3 μg/ml) and anti-CD28 (0.5 μg/ml) antibodies and varying amounts of HF was added to each T cell culture condition (1.25 nM-40 nM). CD4+ T cell proliferation was monitored by CFSE dilution on day 3-post activation and CD25 expression was evaluated by FACS staining 2 days after activation. For T cell differentiation experiments, naïve T cells were activated as above in the presence of Th1 (IL-12 (20 ng/ml) plus anti-IL-4 (10 μg/ml)), Th2 (IL-4 (50 ng/ml) plus anti-IFNγ (0.5 mg/ml)) or Th17 (TGFβ (3 ng/ml) plus IL-6 (30 ng/ml)) polarizing conditions plus titrating amounts of HF (1.25 nM-40 nM) or MAZ1310 (40 nM). The percentage of Th17 cells, (IL-17^+ IFNγ^−) was evaluated on day 3 following activation, whereas the abundance of Th1 cells (IFNγ^+ IL-4) and Th2 cells (IL-4^+ IFNγ^−) was determined 5 days following activation. All cytokine expression was determined by intracellular staining following PMA+Ionomycin+Brefeldin A re-stimulation and all data was normalized to control (MAZ1310)-treated cells. […] Biol., vol. 80:1-8 (2006).
# Cytokines, antibodies and T cell culture: Purified CD4^+ CD25^− T cells were activated in vitro as previously described (I. M. Djuretic et al., Nat Immunol 8, 145 (2007)) using 0.3 μg/ml hamster anti-mouse CD3 (clone 145-2C11) (ATCC—Manassas, Va.) and 0.5 μg/ml hamster anti-mouse CD28 (BD Pharmingen, San Jose, Calif.). Activated cell cultures were differentiated using the following combinations of cytokines and antibodies: iTreg=recombinant human TGFβ1 (3 ng/ml; R&D systems, Minneapolis, Minn.), Th17βTGFβ1 (3 ng/ml) plus recombinant mouse IL-6 (30 ng/ml, R&D systems). Th1 and Th2 differentiation was performed as previously described. (I. M. Djuretic et al., Nat Immunol 8, 145 (2007)). Human IL-2 supernatant (National Cancer Institute) was used in culture at 0.01 U/ml and was added at 48 hours-post activation when T cells were split into tissue culture wells lacking CD3 and CD28 antibodies, with the exception of Th17 cultures that were maintained in the absence of IL-2. All reagents were added at the time of T cell activation and again at 48-hours post activation unless indicated otherwise. For some experiments, purified CD4^+ CD25^− T cells, CD8^+ T cells or B cells were labeled with 1 μM CFSE (Invitrogen) prior to activation in accordance with manufacturers instructions.
# Detection of cytokine production: Cytokines secreted into media supernatant were measured using the mouse Th1/Th2 cytometric bead array (CBA, BD Pharmingen) in accordance with manufacturers instructions.
# [4] = system: TSK mouse; conditions: 1 μg HF/mouse IP daily (McGaha et al.); cited from earlier work
compound,measurement,setting,value
"O=C(CC1NCCCC1O)Cn1cnc2cc(Br)c(Cl)cc2c1=O (racemic) [HF, 7-bromo-6-chloro-3-[3-(3-hydroxy-2-piperidinyl)-2-oxopropyl]-4(3H)-quinazolinone]","effect on TGFβ-induced Smad phosphorylation and other lymphocyte responses to TGFβ, in words",[1],inhibited neither TGFβ-induced Smad phosphorylation
same,"radiation induced fibrosis, in words",[2]; 1-5 μg/mouse (Xavier et al.),prevented radiation induced fibrosis but not normal healing of irradiated tissue
same,"toxic effect in mice, in words",[2]; 1-5 μg/mouse,without evident toxic effect
same,"time of addition giving most pronounced inhibition of IL-17 expression, in words",[3]; 10 nM HF added at indicated times after activation,most pronounced when HF was added during a 12-hour window at the start of the culture period
same,"effect on Il17 and Il17f mRNA expression, in words","[3]; 10 nM HF, 4 days, Th17 cytokine conditions",impaired expression of both Il17 and Il17f mRNA
same,"IL-17 expression in T cells lacking Foxp3, in words","[3]; 10 nM HF, Foxp3 KO naïve CD4+ T cells, TGFβ plus IL-6",strongly repressed IL-17 expression
same,"Th17 differentiation of T cells expressing STAT3C, in words","[3]; 10 nM HF, STAT3C-GFP+ cells",remained capable of differentiating into Th17 cells
same,"Th17 differentiation of cells expressing YFP or no transgene, in words","[3]; 5-10 nM HF, TAT-Cre treated T cells",strongly impaired
same,fold lower doses for effects on Th17 differentiation versus general inhibition of T-cell proliferation and Th1/Th2 differentiation,[3]; FIG. 7,5- to 10 fold and ~10 fold
same,"Th17 differentiation in T cells transduced with RORγt-expressing versus empty retroviruses, in words",[3]; MIG.RORγt vs MIG,inhibited Th17 differentiation as effectively
same,IC50,"[3]; Mus musculus, T-cell, in vitro, read-out: concentration for 50% inhibition of Th17 cell development",~3 nM
same,concentration window of specific inhibition of Th17 differentiation,"[3]; exogenously added HF, TGFbeta in the presence of IL-6",2 to 30 nM
same,"skin thickness in TSK model, in words",[4],reduced skin thickness of a TSK mouse to that of a normal mouse
same,"toxic effects in TSK model, in words",[4],no toxic effects

# Source: US20110212100A1, “METHODS FOR MODULATING DEVELOPMENT AND EXPANSION OF IL-17 EXPRESSING CELLS” (priority 2007, published 2011)
